The structures appear in SMILES notation. pIC50: −log10 of the molar value.

In this experiment the test system is HBsAg. Put plainly: HBsAg assay (CLIA of secreted HBsAg in HepG2.2.15 culture supernatant). The experiment is classed as cell-based, HBV. Particulars: Hepatitis B virus. As for the experimental part:
HepG2.2.15 cells (Acs et al. Proc Natl Acad Sci USA, 84, (1987), 4641-4), a constitutively HBV-expressing cell line were cultured in DMEM+Glutamax-I medium (Invitrogen, Carlsbad, Calif., USA), supplemented with 10% fetal bovine serum (Invitrogen) and G418 (Invitrogen) at a final concentration of 200 mg/L and maintained in 5% CO2 at 37° C.
HepG2.2.15 cells were seeded in duplicate into white, 96-well plates at 1.5×10^4 cells/well. The cells were treated with a three-fold serial dilution series of the compounds in DMSO. The final DMSO concentration in all wells was 1% and DMSO was used as no drug control.
The HBsAg chemiluminescence immunoassay (CLIA) kit (Autobio Diagnostics Co., Zhengzhou, China, Catalog number: CL0310-2) was used to measure the levels of secreted HBV antigens semi-quantitatively. For the detection 50 μL/well culture supernatant was used and HBsAg was quantified using HBsAg chemiluminescence immunoassay (CLIA) kit (Autobio Diagnostics Co., Zhengzhou, China, Catalog number: CL0310-2), 50 μl of the supernatant was transferred to the CLIA assay plate and 50 μL of enzyme conjugate reagent was added into each well. The plates were sealed and gently agitated for 1 hour at room temperature. The supernatant-enzyme-mixture was discarded and wells were washed 6 times with 300 μL of PBS. The residual liquid was removed by plating the CLIA plate right side down on absorbent tissue paper. 25 μL of substrates A and B were added to each well. Luminance was measured using a luminometer (Mithras LB 940 Multimode Microplate Reader) after 10 minutes incubation. Dose-response curves were generated and the IC50 value was extrapolated by using the E-WorkBook Suite (ID Business Solutions Ltd., Guildford, UK).
The compounds of the present invention were tested for their capacity to inhibit HBsAg as described herein.
Regarding `COCCCOc1cc2c(cc1Cl)-c1cc(=O)c(C(=O)Nc3nnn[nH]3)cn1C(C(C)C)C2` (stereo not shown) [Example 37, 10-chloro-6-isopropyl-9-(3-methoxypropoxy)-2-oxo-N-(1H-tetrazol-5-yl)-6,7-dihydrobenzo[a]quinolizine-3-carboxamide], the pIC50 (in general, −log10 of the IC50, conventionally taken in molar units) is 5.23.

`CCC1Cc2cc(OCCCOC)c(OC)cc2-c2cc(=O)c(CN(C)C)cn21` (stereo not shown) [Example 28, 3-[(dimethylamino)methyl]-6-ethyl-10-methoxy-9-(3-methoxypropoxy)-6,7-dihydrobenzo[a]quinolizin-2-one] gave a pIC50 of 5.43.

`COCCCOc1cc2c(cc1Cl)-c1cc(=O)c(C(=O)Nc3nnn[nH]3)cn1[C@H](C(C)C)C2` [Example 38, (+)-10-chloro-6-isopropyl-9-(3-methoxypropoxy)-2-oxo-N-(1H-tetrazol-5-yl)-6,7-dihydrobenzo[a]quinolizine-3-carboxamide] had a pIC50 of 5.64. This pIC50 lies 0.21 log units higher than the previous one.

`CCC1Cc2cc(OCCCOC)c(OC)cc2-c2cc(=O)c(CN3CCOCC3)cn21` (stereo not shown) [Example 26, 6-ethyl-10-methoxy-9-(3-methoxypropoxy)-3-(morpholinomethyl)-6,7-dihydrobenzo[a]quinolizin-2-one] showed a pIC50 of 4.79. This pIC50 lies 0.85 log units lower than the previous one.

Molecule `CCC1Cc2cc(OCC(C)C)c(OC)cc2-c2cc(=O)c(C(=O)NC(C)COC)cn21` (stereo not shown) [Example 18, 6-ethyl-9-isobutoxy-10-methoxy-N-(2-methoxy-1-methyl-ethyl)-2-oxo-6,7-dihydrobenzo[a]quinolizine-3-carboxamide] had a pIC50 of 5.31.

In turn, `CCC1Cc2cc(OCCCOC)c(OC)cc2-c2cc(=O)c(CN3CCCC3C(=O)O)cn21` (stereo not shown) [Example 23, 1-[[6-ethyl-10-methoxy-9-(3-methoxypropoxy)-2-oxo-6,7-dihydrobenzo[a]quinolizin-3-yl]methyl]pyrrolidine-2-carboxylic Acid] gave a negative-log IC50 (pIC50) of 4.76.

For `CCOc1cc2c(cc1OC)-c1cc(=O)c(C(=O)NC(C)COC)cn1C(CC)C2` (stereo not shown) [Example 17, 9-ethoxy-6-ethyl-10-methoxy-N-(2-methoxy-1-methyl-ethyl)-2-oxo-6,7-dihydrobenzo[a]quinolizine-3-carboxamide], the pIC50 was 5.66. Compared with the last molecule, the pIC50 is 0.90 log units higher.

Molecule `CC[C@@H]1Cc2cc(OC)c(OC)cc2-c2cc(=O)c(C(=O)Nc3nnn[nH]3)cn21` [Example 31, (6R)-6-ethyl-9,10-dimethoxy-2-oxo-N-(1H-tetrazol-5-yl)-6,7-dihydrobenzo[a]quinolizine-3-carboxamide] showed a pIC50 of 4.36.

Regarding `CCC1Cc2cc(OCCCOC)c(OC)cc2-c2cc(=O)c(CN(C)CC(=O)O)cn21` (stereo not shown) [Example 30, 2-[[6-ethyl-10-methoxy-9-(3-methoxypropoxy)-2-oxo-6,7-dihydrobenzo[a]quinolizin-3-yl]methyl-methyl-amino]acetic Acid], the pIC50 was 4.77. This pIC50 lies 0.41 log units higher than the previous one.

Take `CCC1Cc2cc(OCCCOC)c(OC)cc2-c2cc(=O)c(C(=O)N3CCOC(C(=O)O)C3)cn21` (stereo not shown) [Example 13, 4-[6-ethyl-10-methoxy-9-(3-methoxypropoxy)-2-oxo-6,7-dihydrobenzo[a]quinolizine-3-carbonyl]morpholine-2-carboxylic Acid]: the pIC50 is 4.44.

Molecule `COCCCOc1cc2c(cc1OC)-c1cc(=O)c(C(=O)Nc3nnn[nH]3)cn1C(C(C)C)C2` (stereo not shown) [Example 36, 6-isopropyl-10-methoxy-9-(3-methoxypropoxy)-2-oxo-N-(1H-tetrazol-5-yl)-6,7-dihydrobenzo[a]quinolizine-3-carboxamide] gave a negative logarithm of the IC50 (pIC50) of 5.26.

Take `CCCNC(=O)c1cn2c(cc1=O)-c1cc(OC)c(OCc3ccccc3)cc1CC2CC` (stereo not shown) [Example 5, 9-benzyloxy-6-ethyl-10-methoxy-2-oxo-N-propyl-6,7-dihydrobenzo[a]quinolizine-3-carboxamide]: the pIC50 was 5.25.

With `CCC1Cc2cc(OCc3ccccc3)c(OC)cc2-c2cc(=O)c(C(=O)NS(C)(=O)=O)cn21` (stereo not shown) [Example 4, 9-benzyloxy-6-ethyl-10-methoxy-N-methylsulfonyl-2-oxo-6,7-dihydrobenzo[a]quinolizine-3-carboxamide], the negative logarithm of the IC50 (pIC50) is 6.04. This pIC50 is 0.79 log units higher than that of the molecule before.

In turn, `CCC1Cc2cc(OCCCOC)c(OC)cc2-c2cc(=O)c(CO)cn21` (stereo not shown) [Example 20, 6-ethyl-3-(hydroxymethyl)-10-methoxy-9-(3-methoxy-propoxy)-6,7-dihydrobenzo[a]quinolizin-2-one] had a pIC50 of 4.65.

`CCC1Cc2cc(OCCCOC)c(OC)cc2-c2cc(=O)c(COC)cn21` (stereo not shown) [Example 29, 6-ethyl-10-methoxy-3-(methoxymethyl)-9-(3-methoxypropoxy)-6,7-dihydrobenzo[a]quinolizin-2-one] had a pIC50 of 5.82.

Consider `CCC1Cc2cc(OCCCOC)c(OC)cc2-c2cc(=O)c(C(=O)NCc3ccccc3)cn21` (stereo not shown) [Example 15, N-benzyl-6-ethyl-10-methoxy-9-(3-methoxypropoxy)-2-oxo-6,7-dihydrobenzo[a]quinolizine-3-carboxamide], for which the negative logarithm of the IC50 (pIC50) was 4.57. This pIC50 is 1.25 log units lower than that of the molecule before.

For the molecule `CCC1Cc2cc(OCCCOC)c(OC)cc2-c2cc(=O)c(CN3CCCCC3)cn21` (stereo not shown) [Example 24, 6-ethyl-10-methoxy-9-(3-methoxypropoxy)-3-(1-piperidylmethyl)-6,7-dihydrobenzo[a]quinolizin-2-one], the pIC50 is 4.90. Compared with the last molecule, the pIC50 is 0.33 log units higher.

For the molecule `COCCCOc1cc2c(cc1OC)-c1cc(=O)c(C(=O)Nc3nnn[nH]3)cn1C(C1CCC1)C2` (stereo not shown) [Example 33, 6-cyclobutyl-10-methoxy-9-(3-methoxypropoxy)-2-oxo-N-(1H-tetrazol-5-yl)-6,7-dihydrobenzo[a]quinolizine-3-carboxamide], the pIC50 is 6.00.

Regarding `CCC1Cc2cc(OCc3ccccc3)c(OC)cc2-c2cc(=O)c(C(=O)NCCN(C)C)cn21` (stereo not shown) [Example 8], the pIC50 was 4.47.

For `CCC1Cc2cc(OCCCOC)c(OC)cc2-c2cc(=O)c(CN3CCCC3)cn21` (stereo not shown) [Example 25, 6-ethyl-10-methoxy-9-(3-methoxypropoxy)-3-(pyrrolidin-1-ylmethyl)-6,7-dihydrobenzo[a]quinolizin-2-one], the pIC50 is 4.79.

Consider `CCC(C)NC(=O)c1cn2c(cc1=O)-c1cc(OC)c(OCc3ccccc3)cc1CC2CC` (stereo not shown) [Example 9, 9-benzyloxy-6-ethyl-10-methoxy-2-oxo-N-sec-butyl-6,7-dihydrobenzo[a]quinolizine-3-carboxamide], for which the pIC50 is 5.27.

With `CCC1Cc2cc(OCCCOC)c(OC)cc2-c2cc(=O)c(CNC)cn21` (stereo not shown) [Example 27, 6-ethyl-10-methoxy-9-(3-methoxypropoxy)-3-(methylaminomethyl)-6,7-dihydrobenzo[a]quinolizin-2-one], the pIC50 is 4.80.

For `CCC1Cc2cc(OCCCOC)c(OC)cc2-c2cc(=O)c(CN3CCCCC3C(=O)O)cn21` (stereo not shown) [Example 22, 1-[[6-ethyl-10-methoxy-9-(3-methoxypropoxy)-2-oxo-6,7-dihydrobenzo[a]quinolizin-3-yl]methyl]piperidine-2-carboxylic Acid], the pIC50 is 4.36.

For `COCCCOc1cc2c(cc1OC)-c1cc(=O)c(C(=O)Nc3nnn[nH]3)cn1C(C(C)(C)C)C2` (stereo not shown) [Example 32, 6-tert-butyl-10-methoxy-9-(3-methoxypropoxy)-2-oxo-N-(1H-tetrazol-5-yl)-6,7-dihydrobenzo[a]quinolizine-3-carboxamide], the negative logarithm of the IC50 (pIC50) is 6.42.

Molecule `CCC1Cc2cc(OCc3ccccc3)c(OC)cc2-c2cc(=O)c(C(=O)NCc3ccccc3)cn21` (stereo not shown) [Example 1, N-benzyl-9-benzyloxy-6-ethyl-10-methoxy-2-oxo-6,7-dihydrobenzo[a]quinolizine-3-carboxamide] had a pIC50 of 4.58. Compared with the last molecule, the pIC50 is 1.84 log units lower.

(Values after patent US9920049B2 (priority 2014, dated 2018).)
